Series [1] can be described thus: Ex vivo biodistribution of 177Lu-labeled radioligands in tumor-free nude mice. The conditions noted are these: mouse, blood, intravenous, 1.11 MBq, total radioactivity, 24 h p.i., read-out: accumulation in the blood pool (biodistribution). The text has this:
(§1) After imaging collection and image reconstruction, samples from euthanized experimental mice, including blood and multiple significant organs, were harvested and weighed. The radioactivity in each collected tissue was counted using an automated gamma counter (Wizard 2480, PerkinElmer) and the accumulation of radioactivity in different tissues and organs was quantified and expressed as %ID/g (mean ± SD). [^177Lu]Lu-DOTA-FD1 (~1.11 MBq, n = 3), [^177Lu]Lu-DOTA-FD2 (~1.11 MBq, n = 3), and [^177Lu]Lu-DOTA-FD3 (~1.11 MBq, n = 3) were injected into the tail vein of free nude mice at 6 h, 24 h, and 24 h for ex vivo biodistribution to verify the circulation time of the 3 probes in vivo. Biodistribution data from tumor-bearing mice injected with [^177Lu]Lu-DOTA-FD3 at 45 h (~1.11 MBq, n = 4) and 90 h (~1.11 MBq, n = 3) validated the prolonged enrichment of the probe at the tumor site. At the end of each probe imaging and radioactivity counting study, tumor tissues were fixed in paraformaldehyde tissue fixative. Briefly, sections of 10 μm were cut and stained for H&E following the standard protocols. IHC staining with a FAP antibody (ab227703, Abcam) was performed only on tumor tissues following accepted techniques.

The nature of series [2]: Ex vivo biodistribution of [177Lu]Lu-DOTA-FD3 in HT1080-FAP tumor models. Set-up: species or system mice. Particulars: nude (thymus-free), mouse, 1.11 MBq, total radioactivity.
Description: as §1

Series [3] relates to HT1080-FAP tumor. The series can be described thus: FAP-targeted radioligand therapy in HT1080-FAP tumor models. In kind it is in vivo, mice. The procedure:
(§2) HT1080-FAP tumor models with higher levels of FAP expression were utilized in this study. Tumor-bearing mice were subjected to therapy experiments when the tumor volume reached 50 to 180 mm^3. Tumor models with different tumor volumes were injected with different therapeutic doses. Mice bearing HT1080-FAP tumors of slightly larger tumor volumes were randomly assigned into 4 groups (n = 5 per group): control group and treatment groups with 800 μCi of [^177Lu]Lu-DOTA-FD1, 400 μCi of [^177Lu]Lu-DOTA-FD3, and 600 μCi [^177Lu]Lu-DOTA-FD3. Mice bearing HT1080-FAP tumors of slightly smaller tumor volumes were also divided into 4 groups (n = 6 per group): control group and treatment groups with 200 μCi of [^177Lu]Lu-DOTA-FD1, 200 μCi of [^177Lu]Lu-DOTA-FD2, and 200 μCi of [^177Lu]Lu-DOTA-FD3. Tumor volume and mice body weight were examined daily after a single-dose injection. Weight monitoring is expressed as a percentage of initial weight on the measurement day. Tumor volume was measured as half of the length × width squared times. Mice were euthanized when the tumor volume exceeded 1,500 mm^3, the tumor ruptured, or when it lost more than 20% of its body weight. T3M-4 tumor models with abundant stroma were established to validate the therapeutic efficacy of [^177Lu]Lu-DOTA-FD3. When the tumor volume grew to 100 to 150 mm^3, the mice were randomly divided into 2 groups (n = 7 per group): free ^177Lu treatment group and 500 μCi [^177Lu]Lu-DOTA-FD3 treatment group. Tumor volume and mice body weight were examined every 2 days.

The test system of series [4] is T3M-4 tumor. The experiment in a line: Radioligand therapy in T3M-4 pancreatic cancer models. The series is classed as in vivo, mice. The conditions noted are these: T3M-4 models. The protocol: as §2, with “When the tumor volume grew to 100 to 150 mm^3, the mice were randomly divided into 2 groups (n = 7 per group): free ^177Lu treatment group and 500 μCi [^177Lu]Lu-DOTA-FD3 treatment group. Tumor volume and mice body weight were examined every 2 days.” left out

Series [5] in a line: Stability of 177Lu-labeled radiopharmaceuticals in FBS and PBS. The conditions noted are these: 50% FBS and 50% PBS, checked at 2 h and 24 h. The series is classed as in vitro ADME. The procedure:
To perform ^68Ga-labeling, approximately 20 nmol of FD1, FD2, or FD3 was dissolved in 20 μl of dimethyl sulfoxide and 230 μl of sterile deionized water. This mixture was added to 400 μl of ^68GaCl3 solution (containing 37 MBq) in 0.1 M HCl, with pH adjusted to 4.0 using 0.1 M NH4OAC. The mixture was incubated at 100 °C for 10 min without any additional purification steps. For ^177Lu-labeling, high-purity radionuclide ^177LuCl3 in 0.04 M HCl (3.9 GBq in 97 μl) was purchased from ITM (Munich, Germany). ^177LuCl3 solution (555 MBq in 0.04 M HCl) was added to 500 μl of 1M NH4OAC (pH = 5), followed by the addition of 375 nmol of FD1, FD2, or FD3. The solution was shaken at a temperature of 100 °C for a duration of 30 min. Instant thin-layer chromatography (iTLC; Eckert & Ziegler Radiopharma Inc.) was used to evaluate the RCP of the final products. For iTLC, the mobile phase consisted of 1 M NH4OAC and methyl alcohol in a ratio of 1:1. The final solution must be adjusted to pH 7.0 before being injected into the experimental mice via the tail vein. The stability of ^177Lu-labeled radiopharmaceuticals was evaluated in a mixture of 50% FBS and 50% PBS at 2 h and 24 h after preparation. In the process of preparing each [^68Ga]Ga-DOTA-FD1 for clinical imaging, the end product underwent sterilization by passing it through a 0.22-μm Millipore filter.

Where [6] appears, read: average tumor volume 180 mm^3 at onset, single dose 400 μCi or 600 μCi.

Where two headings read alike, the source gives them in different places.

Turning to `CCCCCC(=O)N[C@H]1CSCc2cc(CSCCNC(=O)[C@H](CCCCNC(=O)CCCc3ccc(I)cc3)NC(=O)[C@@H](NC(=O)[C@H](CCSC)NC(=O)CN3CCN(CC(=O)O)CCN(CC(=O)O)CCN(CC(=O)O)CC3)C(C)C)cc(c2)CSC[C@@H](C(=O)O)NC(=O)[C@H](Cc2ccccc2)NC(=O)[C@H](CCC(N)=O)NC(=O)[C@H]([C@@H](C)O)NC(=O)[C@@H]2CCCN2C(=O)[C@@H]2CCCN2C1=O` [[^177Lu]Lu-DOTA-FD3, metal not drawn], the tissue uptake at 24 h in series [1] turned out to be 28.1 ± 3.52 %ID/g. The tissue uptake at 45 h in series [2] (45 h, read-out: tumor uptake (biodistribution)) worked out at 10.5 ± 1.02 %ID/g; in series [2] (blood, 45 h p.i., read-out: blood pool retention (biodistribution)), 16.3 ± 2.5 %ID/g. Besides, the tissue uptake at 90 h in series [2] (90 h, read-out: tumor uptake (biodistribution)) amounted to 12.4 ± 3.12 %ID/g; in series [2] (blood, 90 h p.i., read-out: blood pool retention (biodistribution)), 11.5 ± 1.54 %ID/g. Also, the “tumor growth at the end of the study” value in series [3] (average tumor volume 50 mm^3 at onset, single dose 200 μCi) is “substantially inhibited the tumor growth”. For the same compound, the “mice that acquired complete response (CR)” value in series [3] (average tumor volume 50 mm^3 at onset, single dose 200 μCi, 6 mice per group) is recorded as 3 out of the 6. For the same compound, in series [3] (setting [6]), the tumor relapse result was “relapsed from day 14 onward”. Also, the “tumor volume change after treatment” value in series [3] (setting [6]) is “began to shrink from day 2”. Moreover, the “mice weight versus free 177Lu treatment group” value in series [4] (500 μCi) is recorded as “slightly dropped”. For the same compound, the “tumor volume until the end of the observation” value in series [4] (tumor volume around 135 mm^3 at onset, [177Lu]Lu-DOTA-FD3 at 500 μCi) was “satisfactorily controlled”. The “stable in FBS and PBS, no significant demetallation” value in series [5] is reported as “at least 24 h”.
